The values that follow come from patent US6972319B1, “Pituitary adenylate cyclase activating peptide (PACAP)receptor 3 (R3) agonists and their pharmacological methods of use” (priority 1999, dated 2005).

No end group written: not given here.

The first experiment deals with T1, PACAP-R3 (Homo sapiens, UniProt P41587).
T1 sequence (P41587 24-438): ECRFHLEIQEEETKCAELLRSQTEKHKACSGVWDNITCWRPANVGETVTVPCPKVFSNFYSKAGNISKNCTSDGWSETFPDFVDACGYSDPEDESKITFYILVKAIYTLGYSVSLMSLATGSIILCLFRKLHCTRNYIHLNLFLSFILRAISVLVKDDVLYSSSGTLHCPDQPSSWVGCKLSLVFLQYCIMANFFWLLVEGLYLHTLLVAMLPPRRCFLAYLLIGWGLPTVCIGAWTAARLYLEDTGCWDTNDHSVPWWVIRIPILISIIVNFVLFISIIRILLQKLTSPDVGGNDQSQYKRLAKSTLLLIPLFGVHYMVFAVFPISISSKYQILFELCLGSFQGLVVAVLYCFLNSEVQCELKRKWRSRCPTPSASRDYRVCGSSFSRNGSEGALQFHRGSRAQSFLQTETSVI
The experiment is described as follows: Cyclic AMP SPA on CHO cells expressing PACAP R3. Set-up: expressed in transfected cells; host or cells: CHO cells (Geneticin selection). The conditions noted are these: cAMP SPA, CHO cells transfected with PACAP-R3; concentration at which 50% of maximum PACAP27 activity is achieved; NA = no detectable activities; read-out: R3 EC50. Format: cell-based. How it is done:
CHO cells expressing the PACAP R3 were plated in 96-well plates (Costar) at 8×10^4 cell/well and grown at 37 C. for 24 hours in α MEM+nucleosides+glutamine (Giobco BRL), 10% FBS, 100 μg/ml Pen/Strep, 0.3 mg/ml glutamine, 1 mM HEPES, 0.5 mg/ml Geneticin (Gibco BRL). The media was removed and the plates were washed with PBS. The cells were incubated with a peptide, in Hepes-PBS-BSA with 0.4 mg/mlSoybean Trypsin Inhibitor, 0.5 mg/ml Bacitracin, 100 uM IBMX, for 15 min at 37 C. Cyclic AMP in the cell extracts was quantitated using the cAMP SPA direct screening assay system (Amersham Pharmacia Biotech Inc, Piscataway, N.J.,). The peptides shown in Table 3 were assayed for cAMP activity.
EC50 is defined as the concentration of the polypeptide at which 50% of maximum PACAP27 activity is achieved. “NA” denotes no detectable activities. “R3 Selectivity” is derived from the ratio of EC50 at R2 versus EC50 at R3.
As to `CC[C@H](C)[C@H](NC(=O)[C@@H](NC(=O)[C@H](CC(N)=O)NC(=O)[C@H](CC(C)C)NC(=O)[C@H](Cc1ccc(O)cc1)NC(=O)[C@H](CCCCN)NC(=O)[C@H](CCCCN)NC(=O)[C@H](C)NC(=O)[C@H](C)NC(=O)[C@H](CCSC)NC(=O)[C@H](CCC(N)=O)NC(=O)[C@H](CCCCN)NC(=O)[C@H](CCCNC(=N)N)NC(=O)[C@H](CC(C)C)NC(=O)[C@H](CCCNC(=N)N)NC(=O)[C@@H](NC(=O)[C@H](Cc1ccc(O)cc1)NC(=O)[C@H](CC(N)=O)NC(=O)[C@H](CC(=O)O)NC(=O)[C@@H](NC(=O)[C@H](Cc1ccccc1)NC(=O)[C@@H](NC(=O)[C@H](C)NC(=O)[C@H](CC(=O)O)NC(=O)[C@H](CO)NC(=O)[C@@H](N)Cc1c[nH]cn1)C(C)C)[C@@H](C)O)[C@@H](C)O)[C@@H](C)O)C(=O)N[C@@H](CCCCN)C(=O)N[C@@H](CC(N)=O)C(=O)N[C@@H](CCCCN)C(=O)N[C@@H](CCCNC(=N)N)C(=O)N[C@@H](Cc1ccc(O)cc1)C(=O)O` [Peptide R3P70], the EC50 – broadly, the concentration at which the effect is half-maximal – came out at 0.4 nM.
In the case of `CC[C@H](C)[C@H](NC(=O)[C@H](CO)NC(=O)[C@H](CCC(N)=O)NC(=O)[C@H](CC(C)C)NC(=O)[C@H](Cc1ccc(O)cc1)NC(=O)[C@H](CCCCN)NC(=O)[C@H](CCCCN)NC(=O)[C@H](C)NC(=O)[C@H](C)NC(=O)[C@@H](NC(=O)[C@H](CCC(N)=O)NC(=O)[C@H](CCCCN)NC(=O)[C@H](CCCNC(=N)N)NC(=O)[C@H](CC(C)C)NC(=O)[C@H](CCCNC(=N)N)NC(=O)[C@@H](NC(=O)[C@H](Cc1ccc(O)cc1)NC(=O)[C@H](CC(N)=O)NC(=O)[C@H](CC(=O)O)NC(=O)[C@@H](NC(=O)[C@H](Cc1ccccc1)NC(=O)[C@@H](NC(=O)[C@H](C)NC(=O)[C@H](CC(=O)O)NC(=O)[C@H](CO)NC(=O)[C@@H](N)Cc1c[nH]cn1)C(C)C)[C@@H](C)O)[C@@H](C)O)C(C)C)C(=O)N[C@@H](CC(C)C)C(=O)N[C@@H](CCCCN)C(=O)N[C@@H](CCCCN)C(=O)N[C@@H](CCCNC(=N)N)C(=O)N[C@@H](Cc1ccc(O)cc1)C(=O)O` [Peptide R3P83], the 50% effective concentration (EC50) is 0.08 nM.
With “H-HSDAVFTDNYTRLRKQMAGKKYLNSIQNRI-OH [rR3P185]”, the EC50 is 4.5 nM.
On to `CC[C@H](C)[C@H](NC(=O)[C@H](CO)NC(=O)[C@H](CC(N)=O)NC(=O)[C@H](CC(C)C)NC(=O)[C@H](Cc1ccc(O)cc1)NC(=O)[C@H](CCCCN)NC(=O)[C@H](CCCCN)NC(=O)[C@H](CC(C)C)NC(=O)[C@H](C)NC(=O)[C@H](CCSC)NC(=O)[C@H](CCC(N)=O)NC(=O)[C@H](CCCCN)NC(=O)[C@H](CCCNC(=N)N)NC(=O)[C@H](CC(C)C)NC(=O)[C@H](CCCNC(=N)N)NC(=O)[C@@H](NC(=O)[C@H](Cc1ccc(O)cc1)NC(=O)[C@H](CC(N)=O)NC(=O)[C@H](CC(=O)O)NC(=O)[C@@H](NC(=O)[C@H](Cc1ccccc1)NC(=O)[C@@H](NC(=O)[C@H](C)NC(=O)[C@H](CC(=O)O)NC(=O)[C@H](CO)NC(=O)[C@@H](N)Cc1c[nH]cn1)C(C)C)[C@@H](C)O)[C@@H](C)O)C(=O)N[C@@H](CCCCN)C(=O)N[C@@H](CC(N)=O)C(=O)N[C@@H](CCCCN)C(=O)N[C@@H](CCCNC(=N)N)C(=O)O` [Peptide R3P105], for which the EC50 turned out to be 0.3 nM.
Still for that read-out and setting: the same measure for `CC[C@H](C)[C@H](NC(=O)[C@H](CC(=O)O)NC(=O)[C@H](CC(N)=O)NC(=O)[C@H](CC(C)C)NC(=O)[C@H](Cc1ccc(O)cc1)NC(=O)[C@H](CCCCN)NC(=O)[C@H](CCCCN)NC(=O)[C@@H](NC(=O)[C@H](C)NC(=O)[C@H](CC(C)C)NC(=O)[C@H](CCC(N)=O)NC(=O)[C@H](CCCCN)NC(=O)[C@H](CCCNC(=N)N)NC(=O)[C@H](CC(C)C)NC(=O)[C@H](CCCNC(=N)N)NC(=O)[C@@H](NC(=O)[C@H](Cc1ccc(O)cc1)NC(=O)[C@H](CC(N)=O)NC(=O)[C@H](CC(=O)O)NC(=O)[C@@H](NC(=O)[C@H](Cc1ccccc1)NC(=O)[C@@H](NC(=O)[C@H](C)NC(=O)[C@H](CC(=O)O)NC(=O)[C@H](CO)NC(=O)[C@@H](N)Cc1c[nH]cn1)C(C)C)[C@@H](C)O)[C@@H](C)O)C(C)C)C(=O)N[C@@H](CC(C)C)C(=O)N[C@@H](CCCCN)C(=O)NCC(=O)NCC(=O)N[C@H](C(=O)O)[C@@H](C)O` [Peptide R3P28]: 7 nM; for `CC[C@H](C)[C@H](NC(=O)[C@H](CC(=O)O)NC(=O)[C@H](CC(N)=O)NC(=O)[C@H](CC(C)C)NC(=O)[C@H](Cc1ccc(O)cc1)NC(=O)[C@H](CCCCN)NC(=O)[C@H](CCCCN)NC(=O)[C@H](C)NC(=O)[C@H](C)NC(=O)[C@H](CC(C)C)NC(=O)[C@H](CCC(N)=O)NC(=O)[C@H](CCCCN)NC(=O)[C@H](CCCNC(=N)N)NC(=O)[C@H](CC(C)C)NC(=O)[C@H](CCCNC(=N)N)NC(=O)[C@@H](NC(=O)[C@H](Cc1ccc(O)cc1)NC(=O)[C@H](CC(N)=O)NC(=O)[C@H](CC(=O)O)NC(=O)[C@@H](NC(=O)[C@H](Cc1ccccc1)NC(=O)[C@@H](NC(=O)[C@H](C)NC(=O)[C@H](CC(=O)O)NC(=O)[C@H](CO)NC(=O)[C@@H](N)Cc1c[nH]cn1)C(C)C)[C@@H](C)O)[C@@H](C)O)C(=O)N[C@@H](CCCCN)C(=O)N[C@@H](CCCCN)C(=O)NCC(=O)O` [Peptide R3P32]: 0.4 nM; for `CC[C@H](C)[C@H](NC(=O)[C@@H](NC(=O)[C@H](CC(N)=O)NC(=O)[C@H](CC(C)C)NC(=O)[C@H](Cc1ccc(O)cc1)NC(=O)[C@H](CCCCN)NC(=O)[C@H](CCCCN)NC(=O)[C@H](C)NC(=O)[C@H](C)NC(=O)[C@H](CC(C)C)NC(=O)[C@H](CCC(N)=O)NC(=O)[C@H](CCCCN)NC(=O)[C@H](CCCNC(=N)N)NC(=O)[C@H](CC(C)C)NC(=O)[C@H](CCCNC(=N)N)NC(=O)[C@@H](NC(=O)[C@H](Cc1ccc(O)cc1)NC(=O)[C@H](CC(N)=O)NC(=O)[C@H](CC(=O)O)NC(=O)[C@@H](NC(=O)[C@H](Cc1ccccc1)NC(=O)[C@@H](NC(=O)[C@H](C)NC(=O)[C@H](CC(=O)O)NC(=O)[C@H](CO)NC(=O)[C@@H](N)Cc1c[nH]cn1)C(C)C)[C@@H](C)O)[C@@H](C)O)[C@@H](C)O)C(=O)N[C@@H](CCCCN)C(=O)N[C@@H](CC(N)=O)C(=O)N[C@@H](CCCCN)C(=O)N[C@@H](CCCNC(=N)N)C(=O)N[C@@H](Cc1ccc(O)cc1)C(=O)O` [Peptide R3P67]: 0.3 nM.

Still in this experiment, the particulars now being: ratio of EC50 at R2 versus EC50 at R3.
Regarding `CC[C@H](C)[C@H](NC(=O)CNC(=O)[C@H](CC(=O)O)NC(=O)[C@H](CO)NC(=O)[C@@H](N)Cc1c[nH]cn1)C(=O)N[C@@H](Cc1ccccc1)C(=O)N[C@H](C(=O)N[C@@H](CC(=O)O)C(=O)N[C@@H](CO)C(=O)N[C@@H](CCCCN)C(=O)N[C@@H](CO)C(=O)N[C@@H](CCCNC(=N)N)C(=O)N[C@@H](Cc1ccc(O)cc1)C(=O)N[C@@H](CCCNC(=N)N)C(=O)N[C@@H](CCCCN)C(=O)N[C@@H](CCC(N)=O)C(=O)N[C@@H](CCSC)C(=O)N[C@@H](C)C(=O)N[C@H](C(=O)N[C@@H](CCCCN)C(=O)N[C@@H](CCCCN)C(=O)N[C@@H](Cc1ccc(O)cc1)C(=O)N[C@@H](CC(C)C)C(=O)N[C@@H](C)C(=O)N[C@@H](C)C(=O)N[C@H](C(=O)N[C@@H](CC(C)C)C(N)=O)C(C)C)C(C)C)[C@@H](C)O` [PAC10], the “R3 Selectivity” value was found to be 4.
The same measure, in the same setting: in the case of “H-HSDAVFTDNYTRLRKQMAGKKYLNSIQNRI-OH [rR3P185]” it was 40.
On the same count and under the same terms, the same measure for “HSDGIFTDSYSRYRKQLAAKKYLADVKK [Peptide R3P38]”: 7.
